From patent publication US11957143B2, “Highly-soluble rebaudioside D” (SUNTORY HOLDINGS LIMITED, priority 2018, dated 2024)

Experiments:
Assay type in all cases: physicochemical
[1] = Moisture content of crystalline forms (FIG. 10); settings: sample heating 130° C. in N2, trace moisture analyzer
Description: The “moisture content” herein means the proportion of water contained in the crystal and is the proportion (wt %) of the weight of water based on the weight of the entire crystal. The moisture content of the crystal can be determined, for example, by heating the crystal at a high temperature (for example, 130° C.) under an inert atmosphere, and calculating from the change in weight between before and after the heating. The crystal of Reb. D of the present invention preferably has a moisture content of 0.1 wt % to 2.0 wt %, more preferably 0.2 wt % to 1.2 wt %, further preferably 0.40 wt % to 0.8 wt %.
The crystals of Reb. D in the crystalline form α and the crystalline form β and the control (in a stable form) were provided, and their moisture contents were compared. […] The devices and the conditions used for measuring the moisture contents are shown below.
Devices: • Trace moisture analyzer: CA-200, manufactured by Mitsubishi Chemical Analytech Co., Ltd. • Water vaporizer: VA-200 • Reagents: AQUAMICRON AX as anolyte and AQUAMICRON CXU as catholyte • Sample heating: 130° C. in an inert gas atmosphere (gas: N2, flow rate: 300 ml/min)

[2] = Solubility of crystals of Reb. D, amount dissolved (FIG. 6); settings: 300 mg in pure water (150 ml) at 7.5° C., stirring at 200 rpm, 0.45-um filter
Description: The crystals of Reb. D in the crystalline form α and the crystalline form β and a control (commercially available Reb. D in a stable form) were provided, to compare their solubilities. The crystal in the crystalline form α used was obtained by maintaining Reb. D at 50° C. for 1 hour, followed by appropriate N2 purge, and the crystal in the crystalline form β used was obtained by maintaining Reb. D at 100° C. for 1.5 hours, followed by appropriate N2 purge and then overnight cooling at normal temperature. The conditions for dissolution and sample preparation are shown below.
300 mg of Reb. D was added to pure water (150 ml) at 7.5° C., followed by stirring at 200 rpm, for dissolution.
(§1) Sample Preparation Conditions:
A 0.45-um filter was immersed in the solution for 30 seconds, and then a filtrate was obtained through the filter. 1 ml of the filtrate obtained was collected and diluted 10-fold with pure water.

[3] = Turbidity (NTU) and amount dissolved 40 minutes after dissolution (FIG. 7); settings: 90 mg in 150 ml pure water at 7.5° C., 350 rpm, 40 minutes later, versus control
Description: The “turbidity (NTU)” herein means the degree of turbidity when the Reb. D is dissolved in water, and the lower the turbidity means that the Reb. D is dissolved better. The turbidity can be measured by a known method, for example, using an existing absorptiometer.
Then, the solubilities were evaluated under the conditions varied. The crystal in the crystalline form α used was obtained by maintaining at 55° C. for 2 hours, followed by appropriate N2 purge and then natural cooling in vacuo. The dissolution conditions, the conditions of turbidity (NTU) measurement, and the sample preparation conditions are shown below.
90 mg of Reb. D was added to 150 ml of pure water (equivalent to 300 mg/500 ml) at 7.5° C., followed by stirring at 350 rpm for dissolution. The degree of dissolution was checked 40 minutes later.
Conditions of Turbidity (NTU) Measurement:
30 ml was collected 40 minutes later, and the turbidity (NTU) was measured. The turbidity was measured with an absorptiometer (2100AN, manufactured by Hach Company) by turbidimetry using formazin as a standard solution.
as §1
A 0.45-um filter was immersed in the solution for 6 seconds, and then a filtrate was obtained through the filter. 1 ml of the filtrate obtained was collected and diluted 10-fold with pure water.

[4] = Improvement in solubility by supplementary addition of crystal to saturated Reb. D solution (FIG. 9)
Description: Using the Reb. D in the crystalline form α, tests were conducted to confirm that the solubility of commercially available Reb. D was improved. […] First, commercially available Reb. D (in a stable form) was added to water to a saturated state. 24 hours later, the crystal of Reb. D in the crystalline form α was added to the saturated solution. Sampling was performed 24 hours later, 25 hours later, and 48 hours later, to check the amount of the Reb. D dissolved. […] D in the crystalline form α was added.

SMILES | moisture content [1] | amount dissolved as compared with the control (Cont) [2] | amount dissolved [3] | turbidity (NTU) [3] | persistence of the increase in amount dissolved ([4]; 24 hours after the crystal was added to the saturated solution) | amount of Reb. D dissolved after addition of the crystal to a saturated solution of commercially available Reb. D ([4]; crystal added 24 hours after saturation with stable form)
C=C1C[C@@]23CC[C@H]4[C@@](C)(CCC[C@@]4(C)C(=O)O[C@@H]4O[C@H](CO)[C@@H](O)[C@H](O)[C@H]4O[C@@H]4O[C@H](CO)[C@@H](O)[C@H](O)[C@H]4O)[C@@H]2CC[C@]1(O[C@@H]1O[C@H](CO)[C@@H](O)[C@H](O[C@@H]2O[C@H](CO)[C@@H](O)[C@H](O)[C@H]2O)[C@H]1O[C@@H]1O[C@H](CO)[C@@H](O)[C@H](O)[C@H]1O)C3 [control, rebaudioside D] | over 5 wt % | – | – | – | – | –
C=C1C[C@@]23CC[C@H]4[C@@](C)(CCC[C@@]4(C)C(=O)O[C@@H]4O[C@H](CO)[C@@H](O)[C@H](O)[C@H]4O[C@@H]4O[C@H](CO)[C@@H](O)[C@H](O)[C@H]4O)[C@@H]2CC[C@]1(O[C@@H]1O[C@H](CO)[C@@H](O)[C@H](O[C@@H]2O[C@H](CO)[C@@H](O)[C@H](O)[C@H]2O)[C@H]1O[C@@H]1O[C@H](CO)[C@@H](O)[C@H](O)[C@H]1O)C3 [crystalline form α, rebaudioside D] | 0.67 wt % | increased | tended to increase | tended to be low | the increase continued | further increased
C=C1C[C@@]23CC[C@H]4[C@@](C)(CCC[C@@]4(C)C(=O)O[C@@H]4O[C@H](CO)[C@@H](O)[C@H](O)[C@H]4O[C@@H]4O[C@H](CO)[C@@H](O)[C@H](O)[C@H]4O)[C@@H]2CC[C@]1(O[C@@H]1O[C@H](CO)[C@@H](O)[C@H](O[C@@H]2O[C@H](CO)[C@@H](O)[C@H](O)[C@H]2O)[C@H]1O[C@@H]1O[C@H](CO)[C@@H](O)[C@H](O)[C@H]1O)C3 [crystalline form β, rebaudioside D] | 0.37 wt % | increased | – | – | – | –
